Where two headings read alike, the source gives them in different places.
Assays:
[1] = test system: HCT-116 WT cell line; test: Anti-proliferative IC50 assay (SRB); format: cell-based, human; conditions: for IC50: Homo sapiens, 4 h exposure
Source text: (§1) The HCT-116 cell line was purchased from the American Type Culture Collection (Manassas, VA). A POR-overexpressing clone (POR-R) was generated by transfecting the parental cell line with a pBRP expression vector encoding an N-terminal truncated soluble version of the human POR gene ([Foehrenbacher et al., 2013a]; [Guise et al., 2020]). Ectopic expression is driven by the human cytomegalovirus (CMV) major immediate-early promoter. Downstream of POR is a human elongation factor-1 alpha (EF-1 alpha) promoter, which drives expression of mRuby and the puromycin resistance gene pac (puromycin N-acetyltransferase). A POR-null clone (PORG-ko) was generated as previously described ([Su et al., 2013]). POR-null clones were then transfected with a pEGFP-N1 plasmid encoding enhanced green fluorescent protein (EGFP) and geneticin resistance to permit identification upon co-culture ([Hong et al., 2018b]). Cell lines were maintained by weekly subculture in T-flasks containing alpha minimal essential medium (αMEM) with 5% foetal bovine serum (FBS) for a maximum of 24 passages or 90 days (whichever came first). The culture medium was further supplemented with 1 mg/ml geneticin or 2 µM puromycin for the routine maintenance of the POR-null and POR-overexpressing clones respectively. All cultures were re-established from STR-authenticated, mycoplasma negative frozen stocks.
(§2) Cells (700–1,000 per well) were seeded with 100 µl culture medium into 96-well plates and left to attach for 2 h in a humidified 37°C incubator. Compounds were prepared in culture medium and serially diluted (1:3) in the well volume. Plates were returned to a humidified 37°C incubator for the duration of the drug exposure (4 h). Aerobic experiments were performed under standard tissue culture conditions (21% O2), and the anoxic experiments were performed in parallel in a 5% H2/Pd catalyst anaerobic chamber (Shellab Bactron, Sheldon manufacturing Inc., Cornelius, OR) using pre-equilibrated media and plasticware. All anoxia experiments were conducted using a catalyst-scrubbed anaerobic chamber, unless otherwise specified, with gas oxygen measurements of <1 ppm O2. Cells were then washed three times and left to grow for 96 h before cell density determination using a sulforhodamine B (SRB) assay ([Vichai and Kirtikara, 2006]). To this end, the cells were fixed by layering 50 µl of trichloroacetic acid (40% w/v in MilliQ water) on top of the culture media (150 µl) in each well for 1 h at 4°C. Plates were rinsed under running tap water and stained with 50 µl of SRB (0.4% w/v in MilliQ water containing 1% v/v acetic acid) for 30 min at room temperature. Plates were rapidly destained by rinsing three times in tap water containing 1% (v/v) acetic acid. The stain was solubilized by adding 100 µl of 10 mM unbuffered Tris base to each well with gentle rocking for 1 h. Plates were read on a Biotek ELx808 Absorbance Microplate Reader at 490 nm using KC4 software. The IC50 value (concentration required to reduce staining to 50% of the untreated control on the same plate) for each compound was determined by interpolation using a 4-parameter logistic regression model.

[2] = test system: POR-R cell line (POR-overexpressing HCT-116); test: Anti-proliferative IC50 assay (SRB); format: cell-based, human; conditions: for IC50: Homo sapiens, HCT-116, 4 h exposure
Source text: as §1, §2

[3] = test system: PORko-G cell line (POR-knockout HCT-116); test: Anti-proliferative IC50 assay (SRB); format: cell-based, human; conditions: for IC50: Homo sapiens, HCT-116, 4 h exposure
Source text: as §1, §2

[4] = Media stability studies (stirred medium without serum, 37°C); format: physicochemical
Protocol: The stability of each compound was determined in stirred medium (without serum) maintained under aerobic conditions by the constant supply of a humidified gas mixture comprised of 21% O2, 5% CO2 with balance N2. Vials were spiked with 100 µM of the relevant compound, and samples were collected using a positive displacement pipettor for up to 3 h thereafter. The collected samples were then treated with two-volumes of ice-cold acetonitrile containing 2 µM of the relevant deuterated (D8) internal standard and stored at −80°C until LC-MS/MS analysis.
The LC system for tandem MS consisted of an Agilent 1200 autosampler (4°C) and binary pump, a 3.0 × 50 mm, 1.8-micron Zorbax SB-C18 column (Agilent; PN: 827975-302) and 2.1 × 7 mm guard column (Alltech, IL) maintained at 35°C, at a pressure of <400 bar and flow rate of 0.3 ml/min. The mobile phase comprised a gradient of 0.01% formic acid in 80% acetonitrile - 20% water, v/v (solvent A), and 0.01% formic acid in water (solvent B). Initial mobile phase composition was 20% solvent A and 80% solvent B, increasing to 60% A (0–3 min) then 80% A (3–5.45 min), returning to initial conditions (5.5–6 min). Post-run time was 1 min, and the total run time was […]. Mass spectrometric detection was carried out using an Agilent 6410 triple quadrupole mass spectrometer equipped with a multimode ionization (MMI) source. The mass spectrometer was operated in electrospray positive ionization mode using multiple reaction monitoring (MRM), with Q1 & Q3 set to unit resolution ([…]). The electrospray ionization parameters, optimized for the parent molecular ion ([M+H]+) abundance were: drying gas temperature 325°C, vaporiser temperature 150°C, drying gas flow 5 L/min, nebuliser pressure 50 psi, capillary voltage 1.8 kV, Delta EMV 300 V. Ultra-pure nitrogen was used as collision gas. The divert valve feature of the Agilent 6410 triple quadrupole mass spectrometer was utilised to prevent the eluate from entering the ionisation source chamber during the first 0.5 min of each run. For CP-506 samples, positively charged ions representing the [M+H]+ for CP-506 and CP-506-D8 were collisionally dissociated to form specific product ions which were monitored in MS2 (unit resolution). The MRM transition, ionization mode, collision energy, dwell time, fragmentor voltage and retention time for all compounds is provided in Supplementary Table S2. Agilent MassHunter software (v.4.04.00) was used for data acquisition and chromatographic peak integration.

[5] = ref Van Der Wiel et al., 2021; cited from earlier work
[6] = anoxic <1 ppm O2, 96 h drug-free proliferation, read-out: Anoxic IC50 (anti-proliferative)
[7] = normoxic 21% O2, 96 h drug-free proliferation, read-out: Aerobic IC50 (anti-proliferative)
[8] = buffer, Table 1, stirred culture medium at 37°C, read-out: Half-life: time required to reduce the concentration of drug to half of its initial value (converted)
[9] = 37°C, aerobic, medium without serum/cells, 100 µM, read-out: Half-life (T1/2) in stirred medium

SMILES: CCN1CCN(C(=O)c2cc(N(CCBr)CCOS(C)(=O)=O)c(S(C)(=O)=O)cc2[N+](=O)[O-])CC1 [CP-506, 2-[(2-bromoethyl)-5-[(4-ethyl-1-piperazinyl)carbonyl]-2-(methylsulfonyl)-4-nitroanilino]ethyl methanesulfonate]
- IC50 [1, 6]: 12.8 ± 3.7 µM
- IC50 [1, 7]: 257 ± 37 µM
- Fold lower IC50 under anoxic vs aerobic conditions ([1]; anti-proliferative assay): 20.1 fold
- IC50 [2, 6]: 2.5 ± 0.3 µM
- IC50 [2, 7]: 120 ± 13 µM
- Fold lower IC50 under anoxic vs aerobic conditions ([2]; anti-proliferative assay): 48.6 fold
- IC50 ([3]; PORko-G, anoxic <1 ppm O2, 96 h drug-free proliferation, read-out: Anoxic IC50 (anti-proliferative)): 33.1 ± 5.6 µM
- IC50 ([3]; PORko-G, normoxic 21% O2, 96 h drug-free proliferation, read-out: Aerobic IC50 (anti-proliferative)): 240 ± 26 µM
- Fold lower IC50 under anoxic vs aerobic conditions ([3]; PORko-G, anti-proliferative assay): 7.3 fold
- Differential in anoxic sensitivity between PORko-G and POR-R cell lines ([3]; anti-proliferative assay, anoxia): 13 fold
- Time without loss of mass balance in stirred medium ([4]; 37°C, aerobic, stirred medium): over 360 min
- half-life at 100 µM [4, 8]: 1800 min
- O2 concentration above which prodrug activation and cytotoxicity are completely inhibited [5]: above 1 µM O2

SMILES: CCN1CCN(C(=O)c2cc(N(CCBr)CCOS(C)(=O)=O)c(S(C)(=O)=O)cc2NO)CC1 [CP-506H, 2-((2-bromoethyl)(5-(4-ethylpiperazine-1-carbonyl)-4-(hydroxyamino)-2-(methylsulfonyl)phenyl)amino)ethyl methanesulfonate]
- half-life at 100 µM [4, 9]: 10.5 min
- half-life at 100 µM [4, 8]: 10.8 min

SMILES: CCN1CCN(C(=O)c2cc(N(CCBr)CCOS(C)(=O)=O)c(S(C)(=O)=O)cc2N)CC1 [CP-506M, 2-((4-amino-5-(4-ethylpiperazine-1-carbonyl)-2-(methylsulfonyl)phenyl)(2-bromoethyl)amino)ethyl methanesulfonate]
- half-life at 100 µM [4, 9]: 7.6 min
- half-life at 100 µM [4, 8]: 7.8 min

SMILES: CCN1CCN(C(=O)c2cc(N(CCCl)CCCl)c(S(C)(=O)=O)cc2N)CC1 [CP-506M-Cl2, (2-Amino-5-(bis(2-chloroethyl)amino)-4-(methylsulfonyl)phenyl)(4-ethylpiperazin-1-yl)methanone]
- Half-life (T1/2) in stirred medium ([4]; 37°C, aerobic, medium without serum/cells, 100 µM): 271 min
- half-life at 100 µM [4, 9]: 271 min
- half-life at 100 µM [4, 8]: 271 min
- Fold longer half-life than CP-506H or CP-506M ([4]; stirred medium, Figure 3B): ≥ 10 fold
